Data published in patent US4966900A, “Cephalosporin β-lactam compound and medicinal composition” (priority 1986, dated 1990).
≈ marks a conversion by molar mass, not a printed value. Where a name gives a salt, the structure may show the parent alone.

Experiments:
in vivo = assay: in vivo; design: species or system Macaco; settings: monkey, 20 mg/kg
Experimental: Each of 20 mg/kg of the compounds obtained in Example 2, Example 25 and Example 28 was administered parenterally to Macaco and the half-time in blood was measured.
The concentrations of the compounds were measured according to HPLC method. Novapack C18 or Microbondapack C18 (trade name, produced by Waters Co.) was used as a column. Further, cefpiramide was used as a control drug.

E. cloacae 1V25 = assay: MIC; settings: Enterobacter cloacae
C. freundii 1R527 = assay: MIC; settings: Citrobacter freundii, 1R527
C. freundii 1R524 = assay: MIC; settings: Citrobacter freundii, 1R524
K. pneumoniae 4at521 = assay: MIC; settings: Klebsiella pneumoniae, 4AT521
C. freundii 1R526 = assay: MIC; settings: Citrobacter freundii, 1R526
S. aureus Smith = assay: MIC; settings: Staphylococcus aureus, Table 7
E. coli GN5482 = assay: MIC; settings: Escherichia coli, GN5482, E. coli GN5482; Table 7
E. cloacae 908RN = assay: MIC; settings: Enterobacter cloacae, E. colacae 908RN, Table 7
P. aeruginosa 4au542 = assay: MIC; settings: Pseudomonas aeruginosa, 4AU542, P. aeruginosa 4au542; Table 7
E. cloacae 1V247 = assay: MIC; format: cell-based; settings: Enterobacter cloacae, Table 8
Experimental: (§1) The minimum inhibition concentrations (MIC) of the compounds obtained in the respective examples described above were measured according to the standard method of Japanese Chemotherapy Association.

S. aureus IAA498 = assay: MIC; format: cell-based; settings: Staphylococcus aureus, Table 7
Experimental: as §1

E. colacae GN7471 = assay: MIC; settings: Table 7
C. freundii GN7391 = assay: MIC; settings: Citrobacter freundii, GN7391, C. freundii GN7391; Table 7
P. maltophilia OF247 = assay: MIC; settings: Stenotrophomonas maltophilia, Table 7
P. aeruginosa 5D58-1 = assay: MIC; settings: Pseudomonas aeruginosa, 5D581, P. aeruginosa 5D58-1; Table 7
E. coli ML4707 = assay: MIC; settings: Escherichia coli, ML4707, E. coli ML4707; Table 7
P. aeruginosa GN10362 = assay: MIC; settings: Pseudomonas aeruginosa, GN10362
C. freundii 1R523 = assay: MIC; settings: Citrobacter freundii, 1R523
S. marcescens GN10857 = assay: MIC; settings: Serratia marcescens, GN10857, S. marcescens GN10857; Table 7
C. freundii 5D60-1 = assay: MIC; settings: Citrobacter freundii, 5D601
C. freundii 1U589 = assay: MIC; settings: Citrobacter freundii, 1U589
P. vulgaris GN7919 = assay: MIC; settings: Proteus vulgaris, GN7919
C. freundii 1U692 = assay: MIC; settings: Citrobacter freundii, 1U692
E. cloacae 5D52-2 = assay: MIC; settings: Enterobacter cloacae, 5D522
P. cepacia OF189 = assay: MIC; settings: Burkholderia cepacia, OF189, P. cepacia OF189; Table 7
E. cloacae 5D63-2 = assay: MIC; settings: Enterobacter cloacae, 5D632

Row | Compound | MIC (E. cloacae 1V25) [µg/mL] | MIC (C. freundii 1R527) [µg/mL] | MIC (C. freundii 1R524) [µg/mL] | MIC (K. pneumoniae 4at521) [µg/mL] | MIC (C. freundii 1R526) [µg/mL] | MIC (S. aureus Smith) [µg/mL] | MIC (E. coli GN5482) [µg/mL] | MIC (E. cloacae 908RN) [µg/mL] | MIC (P. aeruginosa 4au542) [µg/mL] | MIC (E. cloacae 1V247) [µg/mL] | MIC (S. aureus IAA498) [µg/mL] | MIC (E. colacae GN7471) [µg/mL] | MIC (C. freundii GN7391) [µg/mL] | MIC (P. maltophilia OF247) [µg/mL] | MIC (P. aeruginosa 5D58-1) [µg/mL] | MIC (E. coli ML4707) [µg/mL] | MIC (P. aeruginosa GN10362) [µg/mL] | MIC (C. freundii 1R523) [µg/mL] | MIC (S. marcescens GN10857) [µg/mL] | MIC (C. freundii 5D60-1) [µg/mL] | other results
1 | Cc1cc(O)c(C(=O)N[C@@H](C(=O)N[C@@H]2C(=O)N3C(C(=O)O)=C(CSc4nnnn4C)CS[C@H]23)c2ccc(O)cc2)cn1 [Cefpiramide, cefpiramide, reference compound] | – | – | – | – | – | – | – | – | – | – | – | – | – | – | – | – | – | – | – | – | half-life (in vivo): 2.5 h
2 | CC(=O)Oc1ccc(C(=O)NNC(=O)C(C)(C)ON=C(C(=O)NC2C(=O)N3C(C(=O)O)=C(CSc4cc(C)nc5nc(C(F)(F)F)nn45)CS[C@H]23)c2csc(N)n2)cc1OC(C)=O (some centres unmarked) [Example 48, 7-{2-[2-Amino-1,3-thiazol-4-yl]-2-[1-(3-(3,4-diacetoxybenzoyl)carbazoyl)-1-methylethoxyimino]acetamido}-3-[(5-methyl-2-trifluoromethyl-s-triazolo[1,5-a]pyrimidin-7-yl)-thiomethyl]-3-cephem-4-carboxylic acid] | 50 (≈ 53.4 µM) | 25 (≈ 26.7 µM) | 0.78 (≈ 0.833 µM) | 0.1 (≈ 0.107 µM) | 12.5 (≈ 13.4 µM) | 6.25 (≈ 6.68 µM) | 0.05 (≈ 0.0534 µM) | 3.13 (≈ 3.34 µM) | 1.56 (≈ 1.67 µM) | 50 (≈ 53.4 µM) | 12.5 (≈ 13.4 µM) | 12.5 (≈ 13.4 µM) | 12.5 (≈ 13.4 µM) | 12.5 (≈ 13.4 µM) | 0.78 (≈ 0.833 µM) | 0.1 (≈ 0.107 µM) | 0.78 (≈ 0.833 µM) | 0.78 (≈ 0.833 µM) | 12.5 (≈ 13.4 µM) | 12.5 (≈ 13.4 µM) | MIC (C. freundii 1U589): 12.5 µg/mL (≈ 13.4 µM); MIC (P. vulgaris GN7919): 3.13 µg/mL (≈ 3.34 µM); MIC (C. freundii 1U692): 12.5 µg/mL (≈ 13.4 µM); MIC (E. cloacae 5D52-2): 1.56 µg/mL (≈ 1.67 µM); MIC (P. cepacia OF189): < 0.006 µg/mL; MIC (E. cloacae 5D63-2): 1.56 µg/mL (≈ 1.67 µM)
3 | CC(=O)Oc1ccc(C(=O)NNC(=O)C(C)(C)ON=C(C(=O)NC2C(=O)N3C(C(=O)O)=C(CSc4cc(C)nc5c(C(=O)O)cnn45)CSC23)c2csc(N)n2)cc1OC(C)=O (centres unmarked) [Example 53, 7-{2-[2-amino-1,3-thiazol-4-yl]-2-[1-(3-(3,4-diacetoxybenzoyl)carbazoyl)-1-methylethoxyimino]acetamido}-3-[(3-carboxy-5-methylpyrazolo[1,5-a]pyrimidin-7-yl)thiomethyl-3-cephem-4-carboxylic acid sodium salt] | 6.25 | 0.78 | 0.78 | 0.012 | 0.78 | 12.5 | 0.012 | 0.78 | 0.05 | 12.5 | 12.5 | 0.78 | 6.25 | 0.78 | 0.1 | 0.012 | 0.05 | 0.78 | 0.78 | 3.13 | MIC (C. freundii 1U589): 3.13 µg/mL; MIC (P. vulgaris GN7919): 1.56 µg/mL; MIC (C. freundii 1U692): 1.56 µg/mL; MIC (E. cloacae 5D52-2): 0.1 µg/mL; MIC (P. cepacia OF189): < 0.006 µg/mL; MIC (E. cloacae 5D63-2): 0.39 µg/mL
4 | Cc1cc(SCC2=C(C(=O)O)N3C(=O)C(NC(=O)C(=NOC(C)(C)C(=O)NNC(=O)c4ccc(O)c(O)c4)c4csc(N)n4)[C@H]3SC2)n2nc(C)cc2n1 (some centres unmarked) [Example 57, 7-{2-[2-Amino-1,3-thiazol-4-yl]-2-[1-(3-(3,4-dihydroxybenzoyl)carbazoyl)-1-methylethoxyimino]acetamido}-3-[(2,5-dimethylpyrazolo[1,5-a]pyrimidin-7yl)thiomethyl]-3-cephem-4-carboxylic acid] | 6.25 (≈ 7.84 µM) | 3.13 (≈ 3.93 µM) | 0.2 (≈ 0.251 µM) | 0.012 (≈ 0.0151 µM) | 1.56 (≈ 1.96 µM) | 1.56 (≈ 1.96 µM) | < 0.006 | 0.39 (≈ 0.489 µM) | 0.1 (≈ 0.125 µM) | 6.25 (≈ 7.84 µM) | 3.13 (≈ 3.93 µM) | 1.56 (≈ 1.96 µM) | 3.13 (≈ 3.93 µM) | 1.56 (≈ 1.96 µM) | 0.1 (≈ 0.125 µM) | < 0.006 | 0.1 (≈ 0.125 µM) | 0.2 (≈ 0.251 µM) | 1.56 (≈ 1.96 µM) | 1.56 (≈ 1.96 µM) | MIC (C. freundii 1U589): 3.13 µg/mL (≈ 3.93 µM); MIC (P. vulgaris GN7919): 0.78 µg/mL (≈ 0.979 µM); MIC (C. freundii 1U692): 1.56 µg/mL (≈ 1.96 µM); MIC (E. cloacae 5D52-2): 0.1 µg/mL (≈ 0.125 µM); MIC (P. cepacia OF189): 0.012 µg/mL (≈ 0.0151 µM); MIC (E. cloacae 5D63-2): 0.39 µg/mL (≈ 0.489 µM)

Now from value to compound, other results behind:

Row | MIC (E. cloacae 1V25) [µg/mL] | MIC (C. freundii 1R527) [µg/mL] | MIC (C. freundii 1R524) [µg/mL] | MIC (K. pneumoniae 4at521) [µg/mL] | MIC (C. freundii 1R526) [µg/mL] | MIC (S. aureus Smith) [µg/mL] | MIC (E. coli GN5482) [µg/mL] | MIC (E. cloacae 908RN) [µg/mL] | MIC (P. aeruginosa 4au542) [µg/mL] | MIC (E. cloacae 1V247) [µg/mL] | MIC (S. aureus IAA498) [µg/mL] | MIC (E. colacae GN7471) [µg/mL] | MIC (C. freundii GN7391) [µg/mL] | MIC (P. maltophilia OF247) [µg/mL] | MIC (P. aeruginosa 5D58-1) [µg/mL] | MIC (E. coli ML4707) [µg/mL] | MIC (P. aeruginosa GN10362) [µg/mL] | MIC (C. freundii 1R523) [µg/mL] | MIC (S. marcescens GN10857) [µg/mL] | MIC (C. freundii 5D60-1) [µg/mL] | Compound | other results
5 | 12.5 (≈ 15.4 µM) | 1.56 (≈ 1.92 µM) | 1.56 (≈ 1.92 µM) | 0.025 (≈ 0.0307 µM) | 3.13 (≈ 3.85 µM) | 6.25 (≈ 7.68 µM) | 0.025 (≈ 0.0307 µM) | 1.56 (≈ 1.92 µM) | 0.2 (≈ 0.246 µM) | 12.5 (≈ 15.4 µM) | 12.5 (≈ 15.4 µM) | 0.39 (≈ 0.479 µM) | 25 (≈ 30.7 µM) | 0.39 (≈ 0.479 µM) | 0.05 (≈ 0.0614 µM) | 0.025 (≈ 0.0307 µM) | 0.1 (≈ 0.123 µM) | 1.56 (≈ 1.92 µM) | 0.39 (≈ 0.479 µM) | 6.25 (≈ 7.68 µM) | CC(C)(ON=C(C(=O)NC1C(=O)N2C(C(=O)O)=C(CSc3ccnc4nc(C(=O)O)nn34)CS[C@H]12)c1csc(N)n1)C(=O)NNC(=O)c1ccc(O)c(O)c1 (some centres unmarked) [Example 56, 7-{2-[2-Amino-1,3-thiazol-4-yl]-2-[1-(3-(3,4-dihydroxybenzoyl)carbazoyl)-1-methylethoxyimino]acetamido}-3-[(2-carboxy-s-triazolo[1,5-a]pyrimidin-7-yl)thiomethyl]-3-cephem-4-carboxylic acid] | MIC (C. freundii 1U589): 6.25 µg/mL (≈ 7.68 µM); MIC (P. vulgaris GN7919): 1.56 µg/mL (≈ 1.92 µM); MIC (C. freundii 1U692): 6.25 µg/mL (≈ 7.68 µM); MIC (E. cloacae 5D52-2): 0.1 µg/mL (≈ 0.123 µM); MIC (P. cepacia OF189): < 0.006 µg/mL; MIC (E. cloacae 5D63-2): 1.56 µg/mL (≈ 1.92 µM)
6 | 6.25 (≈ 7.98 µM) | 1.56 (≈ 1.99 µM) | 0.39 (≈ 0.498 µM) | 0.012 (≈ 0.0153 µM) | 3.13 (≈ 4 µM) | 1.56 (≈ 1.99 µM) | < 0.006 | 0.39 (≈ 0.498 µM) | 0.2 (≈ 0.255 µM) | 6.25 (≈ 7.98 µM) | 3.13 (≈ 4 µM) | 1.56 (≈ 1.99 µM) | 3.13 (≈ 4 µM) | 1.56 (≈ 1.99 µM) | 0.05 (≈ 0.0639 µM) | < 0.006 | 0.1 (≈ 0.128 µM) | 0.39 (≈ 0.498 µM) | 1.56 (≈ 1.99 µM) | 1.56 (≈ 1.99 µM) | Cc1cc(SCC2=C(C(=O)O)N3C(=O)C(NC(=O)C(=NOC(C)(C)C(=O)NNC(=O)c4ccc(O)c(O)c4)c4csc(N)n4)[C@H]3SC2)n2nccc2n1 (some centres unmarked) [Example 58, 7-{2-[2-Amino-1,3-thiazol-4-yl]-2-[1-(3-(3,4-dihydroxybenzoyl)carbazoyl)-1-methylethoxyimino]acetamido}-3-[(5-methylpyrazolo[1,5-a]pyrimidin-7-yl)thiomethyl]-3-cephem-4-carboxylic acid] | MIC (C. freundii 1U589): 3.13 µg/mL (≈ 4 µM); MIC (P. vulgaris GN7919): 1.56 µg/mL (≈ 1.99 µM); MIC (C. freundii 1U692): 1.56 µg/mL (≈ 1.99 µM); MIC (E. cloacae 5D52-2): 0.1 µg/mL (≈ 0.128 µM); MIC (P. cepacia OF189): 0.012 µg/mL (≈ 0.0153 µM); MIC (E. cloacae 5D63-2): 0.39 µg/mL (≈ 0.498 µM)
